Measured values reported in patent US6534524B1, “Indazole compounds and pharmaceutical compositions for inhibiting protein kinases, and methods for their use” (Agouron Pharmaceuticals, Inc., priority 1999, dated 2003).

Test system: human umbilical vein endothelial cells (HUVEC)
Experiment: HUVEC proliferation assay (VEGF-stimulated, MTT);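 as to % inhibition of the proliferation of HUVEC: relative to VEGF-stimulated control minus starvation-medium baseline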
Type: cell-based
Conditions: for % inhibition of the proliferation of HUVEC / % inhibition: crude reaction mixtures; for IC50: Homo sapiens, HUVEC, + albumin, read-out: HUVEC + albumin IC50; for % inhibition: Library III, HUVEC proliferation, nominal concentration of 0.5 nM
[1] = Library II, Y=S, 0.5 mM (column head; text: nominal 0.5 nM)
[2] = Library II, Y=S, 2 mM (column head; text: nominal 2 nM)
[3] = Library I, Y = CO, nominal concentration of 10 nM
[4] = Library I, Y = NH, nominal concentration of 10 nM
[5] = Library I, Y = O, nominal concentration of 10 nM

Row | Compound | % inhibition of the proliferation of HUVEC [1] | % inhibition of the proliferation of HUVEC [2] | % inhibition | also measured
1 | O=C(NCCc1c[nH]cn1)c1ccccc1Sc1ccc2c(/C=C/c3ccccn3)n[nH]c2c1 | 23% | −32% |  | 
2 | O=C(N/N=C/c1ccccn1)c1ccccc1Sc1ccc2c(/C=C/c3ccccn3)n[nH]c2c1 [Example 36(b)] |  |  |  | IC50: > 30 nM
3 | O=C(Nc1ccc(C2CCCCC2)cc1)c1ccccc1Sc1ccc2c(/C=C/c3ccccn3)n[nH]c2c1 |  |  | 1% | 
4 | Cc1cc(NC(=O)c2ccccc2Sc2ccc3c(/C=C/c4ccccn4)n[nH]c3c2)n(C)n1 | 39% | 13% |  | 
5 | CCSCCNC(=O)c1ccccc1Sc1ccc2c(/C=C/c3ccccn3)n[nH]c2c1 |  |  | 7% | 
6 | Nc1ccccc1CNC(=O)c1ccccc1Sc1ccc2c(/C=C/c3ccccn3)n[nH]c2c1 |  |  | 46% | 
7 | O=C(NCCc1ccccc1)c1ccccc1Sc1ccc2c(/C=C/c3ccccn3)n[nH]c2c1 | 15% | 99% |  | 
8 | Cc1cccc(C(C)C)c1NC(=O)c1ccccc1Sc1ccc2c(/C=C/c3ccccn3)n[nH]c2c1 |  |  | −37% | 
9 | COc1ccc(NC(=O)c2ccccc2Sc2ccc3c(/C=C/c4ccccn4)n[nH]c3c2)c(OC)n1 |  |  | 20% | 
10 | O=C(NC(CO)(CO)CO)c1ccccc1Sc1ccc2c(/C=C/c3ccccn3)n[nH]c2c1 |  |  | 14% | 
11 | CC(C)(C)c1ccc(CNC(=O)c2ccccc2Sc2ccc3c(/C=C/c4ccccn4)n[nH]c3c2)cc1 |  |  | −1% | 
12 | O=C(Nc1ccccc1CCO)c1ccccc1Sc1ccc2c(/C=C/c3ccccn3)n[nH]c2c1 |  |  | 10% | 
13 | CCn1nccc1NC(=O)c1ccccc1Sc1ccc2c(/C=C/c3ccccn3)n[nH]c2c1 | 26% | 2% |  | 
14 | O=C(O)CCNC(=O)c1ccccc1Sc1ccc2c(/C=C/c3ccccn3)n[nH]c2c1 | 4% | 20% |  | 
15 | CN(NC(=O)c1ccccc1Sc1ccc2c(/C=C/c3ccccn3)n[nH]c2c1)c1ccccc1 | 16% | 37% |  | 
16 | Cc1ccc(CNC(=O)c2ccccc2Sc2ccc3c(/C=C/c4ccccn4)n[nH]c3c2)o1 [drawing 763] | 56% | 96% |  | 
17 | CN1CCN(NC(=O)c2ccccc2Sc2ccc3c(/C=C/c4ccccn4)n[nH]c3c2)CC1 | 19% | −1% |  | 
18 | CC(C)(C)NC(=O)c1ccccc1Sc1ccc2c(/C=C/c3ccccn3)n[nH]c2c1 |  |  | 23% | 
19 | NC(=O)c1ccc(NC(=O)c2ccccc2Sc2ccc3c(/C=C/c4ccccn4)n[nH]c3c2)cc1 |  |  | 2% | 
20 | CC(NC(=O)c1ccccc1Sc1ccc2c(/C=C/c3ccccn3)n[nH]c2c1)c1ccccc1 (stereo not shown) | 30% | 94% |  | 
21 | CN(C)CCCCNC(=O)c1ccccc1Sc1ccc2c(/C=C/c3ccccn3)n[nH]c2c1 | 23% | 16% |  | 
22 | Cc1ccc(NC(=O)c2ccccc2Sc2ccc3c(/C=C/c4ccccn4)n[nH]c3c2)cc1O |  |  | 6% | 
23 | O=C(NCC1CCCCC1)c1ccccc1Sc1ccc2c(/C=C/c3ccccn3)n[nH]c2c1 |  |  | 3% | 

Row | Compound | % inhibition of the proliferation of HUVEC [1] | % inhibition of the proliferation of HUVEC [2] | % inhibition | also measured
24 | O=C(Nc1ccc(Cl)cc1)c1ccccc1Sc1ccc2c(/C=C/c3ccccn3)n[nH]c2c1 |  |  | −12% | 
25 | CC(=O)c1sc(NC(=O)c2ccccc2Sc2ccc3c(/C=C/c4ccccn4)n[nH]c3c2)nc1C |  |  | −2% | 
26 | O=C(Nc1ccccc1CO)c1ccccc1Sc1ccc2c(/C=C/c3ccccn3)n[nH]c2c1 |  |  | 0% | 
27 | CC(C)CCNC(=O)c1ccccc1Sc1ccc2c(/C=C/c3ccccn3)n[nH]c2c1 [drawing 614] | 14% | 55% |  | 
28 | CCOCCCNC(=O)c1ccccc1Sc1ccc2c(/C=C/c3ccccn3)n[nH]c2c1 | 44% | 97% |  | 
29 | Cc1cc(NC(=O)c2ccccc2Sc2ccc3c(/C=C/c4ccccn4)n[nH]c3c2)no1 | 28% | 14% |  | 
30 | CC1CN(C(=O)c2ccc3c(-c4nc5ccccc5[nH]4)n[nH]c3c2)CC(C)O1 (stereo not shown) |  |  |  | % inhibition of the proliferation of HUVEC [3]: 21%; % inhibition of the proliferation of HUVEC [4]: 7%; % inhibition of the proliferation of HUVEC [5]: 40%
31 | CC(=O)c1ccccc1NC(=O)c1ccccc1Sc1ccc2c(/C=C/c3ccccn3)n[nH]c2c1 |  |  | −7% | 
32 | O=C(NCC1OCCO1)c1ccccc1Sc1ccc2c(/C=C/c3ccccn3)n[nH]c2c1 | 35% | 63% |  | 
33 | CCN1CC(NC(=O)c2ccccc2Sc2ccc3c(/C=C/c4ccccn4)n[nH]c3c2)CN1CC | 2% | −19% |  | 
34 | O=C(NNCC(F)(F)F)c1ccccc1Sc1ccc2c(/C=C/c3ccccn3)n[nH]c2c1 | 16% | 42% |  | 
35 | O=C(NCCc1ccc(Cl)cc1)c1ccccc1Sc1ccc2c(/C=C/c3ccccn3)n[nH]c2c1 |  |  | 0% | 
36 | Cc1ccc(CCNC(=O)c2ccccc2Sc2ccc3c(/C=C/c4ccccn4)n[nH]c3c2)cc1 |  |  | −1% | 
37 | CC(C)(C)CNC(=O)c1ccccc1Sc1ccc2c(/C=C/c3ccccn3)n[nH]c2c1 [drawing 728] | 19% | 24% |  | 
38 | CCOC(=O)CNC(=O)c1ccccc1Sc1ccc2c(/C=C/c3ccccn3)n[nH]c2c1 |  |  | −16% | 
39 | O=C(NC1CCS(=O)(=O)C1)c1ccc2c(-c3nc4ccccc4[nH]3)n[nH]c2c1 (stereo not shown) [drawing 576] |  |  |  | % inhibition of the proliferation of HUVEC [3]: 47%; % inhibition of the proliferation of HUVEC [4]: 10%; % inhibition of the proliferation of HUVEC [5]: 17%
40 | O=C(Nc1cc(Cl)ccc1Cl)c1ccccc1Sc1ccc2c(/C=C/c3ccccn3)n[nH]c2c1 |  |  | 15% | 
41 | Cc1cc(NC(=O)c2ccccc2Sc2ccc3c(/C=C/c4ccccn4)n[nH]c3c2)on1 | 26% | 31% |  | 
42 | CCc1ccc(C)nc1NC(=O)c1ccccc1Sc1ccc2c(/C=C/c3ccccn3)n[nH]c2c1 |  |  | −23% | 
43 | O=C(Nc1ccc(O)c(Cl)c1)c1ccccc1Sc1ccc2c(/C=C/c3ccccn3)n[nH]c2c1 |  |  | −19% | 
44 | Cc1ccc(O)c(NC(=O)c2ccccc2Sc2ccc3c(/C=C/c4ccccn4)n[nH]c3c2)c1 |  |  | −1% | 
45 | Cc1ccc2nc(NC(=O)c3ccccc3Sc3ccc4c(/C=C/c5ccccn5)n[nH]c4c3)sc2c1 |  |  | −9% | 
46 | CN(CCCNC(=O)c1ccccc1Sc1ccc2c(/C=C/c3ccccn3)n[nH]c2c1)c1ccccc1 | 18% | 25% |  | 

Row | Compound | % inhibition of the proliferation of HUVEC [1] | % inhibition of the proliferation of HUVEC [2] | % inhibition | also measured
47 | O=C(N/N=C/C(F)(F)F)c1ccccc1Sc1ccc2c(/C=C/c3ccccn3)n[nH]c2c1 [Example 36(c)] |  |  |  | IC50: > 30 nM
48 | Cc1cccc2sc(NC(=O)c3ccccc3Sc3ccc4c(/C=C/c5ccccn5)n[nH]c4c3)nc12 |  |  | −13% | 
49 | O=C(Nc1ccc(O)cc1)c1ccc2c(-c3nc4ccccc4[nH]3)n[nH]c2c1 [drawing 585] |  |  |  | % inhibition of the proliferation of HUVEC [3]: 33%; % inhibition of the proliferation of HUVEC [4]: 3%; % inhibition of the proliferation of HUVEC [5]: 32%
50 | O=C(Nc1ccc(O)cc1)c1ccccc1Sc1ccc2c(/C=C/c3ccccn3)n[nH]c2c1 |  |  | 52% | 
51 | Nc1nc(NC(=O)c2ccccc2Sc2ccc3c(/C=C/c4ccccn4)n[nH]c3c2)n[nH]1 | −6% | 41% |  | 
52 | O=C(Nc1ccc2[nH]c(=O)[nH]c2c1)c1ccccc1Sc1ccc2c(/C=C/c3ccccn3)n[nH]c2c1 |  |  | 15% | 
53 | CC1CCCCN1CCCNC(=O)c1ccccc1Sc1ccc2c(/C=C/c3ccccn3)n[nH]c2c1 (stereo not shown) | 25% | 15% |  | 
54 | O=C(NCC(F)(F)F)c1ccccc1Sc1ccc2c(/C=C/c3ccccn3)n[nH]c2c1 [drawing 626] | 34% | 61% |  | 
55 | O=C(Nc1cccc(-c2cc[nH]n2)c1)c1ccccc1Sc1ccc2c(/C=C/c3ccccn3)n[nH]c2c1 |  |  | −3% | 
56 | Cc1ccccc1CNC(=O)c1ccccc1Sc1ccc2c(/C=C/c3ccccn3)n[nH]c2c1 | 24% | 99% |  | 
57 | Cc1cccc(C)c1NC(=O)c1ccccc1Sc1ccc2c(/C=C/c3ccccn3)n[nH]c2c1 |  |  | −20% | 
58 | COc1ccc(NC(=O)c2ccccc2Sc2ccc3c(/C=C/c4ccccn4)n[nH]c3c2)cc1F |  |  | 9% | 
59 | CC(C)(C)CNC(=O)c1ccccc1Sc1ccc2c(/C=C/c3ccccn3)n[nH]c2c1 [drawing 687] | 5% | −6% |  | 
60 | O=C(NCCc1cccc(Cl)c1)c1ccccc1Sc1ccc2c(/C=C/c3ccccn3)n[nH]c2c1 |  |  | 0% | 
61 | CC(C)(C)c1csc(NC(=O)c2ccccc2Sc2ccc3c(/C=C/c4ccccn4)n[nH]c3c2)n1 |  |  | −6% | 
62 | CCOC(=O)CC(C)NC(=O)c1ccc2c(-c3nc4ccccc4[nH]3)n[nH]c2c1 (stereo not shown) |  |  |  | % inhibition of the proliferation of HUVEC [3]: 31%; % inhibition of the proliferation of HUVEC [4]: −17%; % inhibition of the proliferation of HUVEC [5]: 20%
63 | O=C(NC1CCSC1=O)c1ccccc1Sc1ccc2c(/C=C/c3ccccn3)n[nH]c2c1 (stereo not shown) [drawing 785] | 25% | 40% |  | 
64 | Cc1ccc(CNC(=O)c2ccccc2Sc2ccc3c(/C=C/c4ccccn4)n[nH]c3c2)cc1Cl |  |  | −16% | 
65 | Cc1cc(NC(=O)c2ccccc2Sc2ccc3c(/C=C/c4ccccn4)n[nH]c3c2)ccc1F |  |  | 9% | 
66 | CC(C)(C)C1CCC(NC(=O)c2ccccc2Sc2ccc3c(/C=C/c4ccccn4)n[nH]c3c2)CC1 (stereo not shown) |  |  | 0% | 
67 | O=C(NC(CO)CC1CCCCC1)c1ccccc1Sc1ccc2c(C=Cc3ccccn3)n[nH]c2c1 (stereo not shown) |  |  | 13% | 
